Laboratory results as given in patent publication US11999746B2, “Compounds” (GlaxoSmithKline Intellectual Property Development Limited, priority 2014, dated 2024).

How the values were obtained:
Type in all cases: biochemical
[1] = biological target: T1, recombinant human Lp-PLA2 (Homo sapiens, UniProt Q13093); assay: (1b) hrThioPAF assay, recombinant human Lp-PLA2; details: Examples 266-412 were tested here, one experiment or average of multiple experiments, read-out: rhLp-PLA2 (pIC50) (converted)
T1 sequence (Q13093 22-441): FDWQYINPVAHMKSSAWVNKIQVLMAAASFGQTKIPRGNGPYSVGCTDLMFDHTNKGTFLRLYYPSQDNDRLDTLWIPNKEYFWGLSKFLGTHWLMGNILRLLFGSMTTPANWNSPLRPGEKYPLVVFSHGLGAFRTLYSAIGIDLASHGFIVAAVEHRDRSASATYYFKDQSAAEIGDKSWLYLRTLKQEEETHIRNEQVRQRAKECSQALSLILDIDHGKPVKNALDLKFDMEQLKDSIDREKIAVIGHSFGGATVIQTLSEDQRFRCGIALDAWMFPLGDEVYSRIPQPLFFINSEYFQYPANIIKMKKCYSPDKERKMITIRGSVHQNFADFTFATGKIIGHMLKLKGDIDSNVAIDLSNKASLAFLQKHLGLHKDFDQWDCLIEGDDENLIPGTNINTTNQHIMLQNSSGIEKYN
Excerpt: 1-O-Hexadecyl-2-deoxy-2-thio-S-acetyl-sn-glyceryl-3-phosphorylcholine (2-thio-PAF) is a substrate for PAF-hydrolases (PAF-AH) commercially available from Cayman Chemical. Upon cleavage with PAF-AH, the free thiol is released at the sn-2 position and can then react with 7-diethylamino-3-(4′-maleimidylphenyl)-4-methylcoumarin (CPM) a thiol-reactive coumarin. This reaction (Michael addition) results in an increase in fluorescence. Inhibitors of Lp-PLA2 therefore prevent this cleavage and no fluorescent increase is observed.
The Thio-PAF assay was run as an unquenched 20 μL assay. The source plate containing the compounds to be tested was prepared by making 1:3 (by volume) serial dilution of the compounds within DMSO on 384-well microplate. Then, 5 μL of the compounds on compound source plate were transferred into 384 well Greiner 784076 (black) plates using STAR+(Hamilton) liquid dispenser. 10 μL of recombinant human Lp-PLA2 enzyme (20 pM rhLp-PLA2 in assay buffer of 50 mM HEPES, pH 7.4, 150 mM NaCl, 1 mM CHAPS) was added to each well of the plate. 5 μL of substrate comprising 40 μM 2-thio-PAF [from ethanol stock], 40 μM CPM [from a DMSO stock] and 400 μM NEM (N-ethylmaleimide) [made fresh daily in DMSO] in assay buffer (50 mM HEPES, pH 7.4, 150 mM NaCl, 1 mM CHAPS) was added to 384 well Greiner 784076 black plates. Plates were vortexed for 10 sec. The plate was covered to protect it from light and incubated for 20 min at 25° C. The plates were read for fluorescence intensity at ex: 380 nm/em: 485 nm using Envision plate reader (Perkin Elmer). Raw data were transferred to Excel software and pIC50 data, curve and QC analysis was conducted by using XL fit module in Excel.

[2] = biological target: T1, recombinant human Lp-PLA2; assay: (1a) PED6 assay, recombinant human Lp-PLA2 (rhLp-PLA2); details: Examples 1-167 and 413-430 were tested here, one experiment or average of multiple experiments, read-out: rhLp-PLA2 (pIC50) (converted)
How it was run: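 PED6 (2 μM final after 1:1 addition of 4 μM stock) cleavage by rhLp-PLA2 (4 nM working solution) in 50 mM HEPES pH 7.4, 150 mM NaCl, 1 mM CHAPS; compounds preincubated with enzyme 30 minutes, reaction 20 min at room temperature. Fluorescence at ex 480/em 540; pIC50 from curve fit.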

Lp-PLA2 in human plasma = biological target: T2, Lp-PLA2 in human plasma (Homo sapiens, UniProt Q13093); assay: (3a) Lp-PLA2 human plasma Thio-PAF assay; details: (3a) Thio-PAF assay, pooled human plasma; Examples 1-265 and 413-430 were tested here; read-out: pIC50 in the Lp-PLA2 human plasma assay (converted)
T2 construct: from tissue; host or cells: pooled human plasma
T2 sequence (Q13093 22-441): T1 sequence (Q13093 22-441)
How it was run: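 Endogenous Lp-PLA2 activity in frozen pooled human plasma measured as thiol release from 2-thio-PAF, detected by CPM fluorescence (ex 380/em 485). Compound preincubation 30 min; 2-min reaction in HEPES pH 7.4 buffer with NEM, stopped with 5% TFA, read 40 min later at room temperature; values as pIC50.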

**Q.** How did the IC50 [1] turn out when `CCOC(=O)C(C)N1CCN2c3cc(OCc4ccc(F)c(F)c4)nc(=O)n3CC2C1` (single isomer, unassigned) [Example E326, Ethyl 2-(7-((3,4-difluorobenzyl)oxy)-9-oxo-3,4,11,11a-tetrahydro-1H-pyrazino[1′,2′:3,4]imidazo[1,2-c]pyrimidin-2(9H)-yl)propanoate] was run?
**A.** Its IC50 is at most 10 µM.

**Q.** For `N#Cc1cc(COc2cc3n(c(=O)n2)C[C@H]2CC(O)CN32)ccc1F` (stereo in doubt) [Example E381, 2-Fluoro-5-((((7R,8aR)-7-hydroxy-1-oxo-1,6,7,8,8a,9-hexahydropyrrolo[1′,2′:3,4]imidazo[1,2-c]pyrimidin-3-yl)oxy)methyl)benzonitrile], which IC50 [1] is on record?
**A.** The IC50 was at most 10 µM.

**Q.** How did the IC50 [1] turn out when `N#Cc1cc(CCOc2cc3n(c(=O)n2)CC2(CCOCC2)N3)ccc1F` [Example 404, 2-Fluoro-5-(2-((5-oxo-2′,3,3′,5,5′,6′-hexahydro-1H-spiro[imidazo[1,2-c]pyrimidine-2,4′-pyran]-7-yl)oxy)ethyl)benzonitrile] was run?
**A.** The IC50 was at most 10 µM.

**Q.** How did the IC50 [1] turn out when `O=c1nc(OCc2ccc(F)c(F)c2)cc2n1CC1(CCN(S(=O)(=O)C3CC3)CC1)N2` [Example 410, 1′-(Cyclopropylsulfonyl)-7-((3,4-difluorobenzyl)oxy)-1H-spiro[imidazo[1,2-c]pyrimidine-2,4′-piperidin]-5(3H)-one] was run?
**A.** Its IC50 is at most 0.001 µM.

**Q.** `CCCn1cc(Oc2c(F)cc(COc3cc4n(c(=O)n3)C[C@@H]3COCN43)cc2F)cn1` [Example E156, (R)-6-((3,5-difluoro-4-((1-propyl-1H-pyrazol-4-yl)oxy)benzyl)oxy)-10,10a-dihydro-1H-oxazolo[3′,4′:3,4]imidazo[1,2-c]pyrimidin-8(3H)-one] was tested. Which IC50 [2] did it give?
**A.** Its IC50 is at most 0.1 µM.

**Q.** And the IC50 (Lp-PLA2 in human plasma)?
**A.** The IC50 was at most 10 µM.

**Q.** For `Cc1ccc(Oc2c(F)cc(COc3cc4n(c(=O)n3)C[C@@H]3COCN43)cc2F)cn1` [Example E157, (R)-6-((3,5-difluoro-4-((6-methylpyridin-3-yl)oxy)benzyl)oxy)-10,10a-dihydro-1H-oxazolo[3′,4′:3,4]imidazo[1,2-c]pyrimidin-8(3H)-one], which IC50 [2] is on record?
**A.** Its IC50 is at most 0.1 µM.

**Q.** And the IC50 (Lp-PLA2 in human plasma)?
**A.** The IC50 was at most 10 µM.

**Q.** With `CCn1cc(Oc2c(F)cc(COc3cc4n(c(=O)n3)C[C@@H]3COCN43)cc2F)cn1` [Example E158, (R)-6-((4-((1-ethyl-1H-pyrazol-4-yl)oxy)-3,5-difluorobenzyl)oxy)-10,10a-dihydro-1H-oxazolo[3′,4′:3,4]imidazo[1,2-c]pyrimidin-8(3H)-one] as the compound, how does the IC50 [2] read?
**A.** The IC50 was at most 0.1 µM.

**Q.** What about the IC50 (Lp-PLA2 in human plasma) of the same compound?
**A.** Its IC50 is at most 10 µM.

**Q.** Which IC50 [2] does the source give for `Cc1ncc(Oc2c(F)cc(COc3cc4n(c(=O)n3)C[C@@H]3COCN43)cc2F)cn1` [Example E159, (R)-6-((3,5-difluoro-4-((2-methylpyrimidin-5-yl)oxy)benzyl)oxy)-10,10a-dihydro-1H-oxazolo[3′,4′:3,4]imidazo[1,2-c]pyrimidin-8(3H)-one] here?
**A.** Its IC50 is at most 0.1 µM.

**Q.** And the IC50 (Lp-PLA2 in human plasma)?
**A.** Its IC50 is at most 10 µM.

**Q.** How did the IC50 [2] turn out when `CCn1cc(Oc2c(F)cc(COc3cc4n(c(=O)n3)C[C@H]3COCN43)cc2F)cn1` [Example E160, (S)-6-((4-((1-ethyl-1H-pyrazol-4-yl)oxy)-3,5-difluorobenzyl)oxy)-10,10a-dihydro-1H-oxazolo[3′,4′:3,4]imidazo[1,2-c]pyrimidin-8(3H)-one] was run?
**A.** The IC50 was at most 0.1 µM.

**Q.** What about the IC50 (Lp-PLA2 in human plasma) of the same compound?
**A.** The IC50 was at most 10 µM.

**Q.** How did the IC50 [2] turn out when `Cc1cc(Oc2c(F)cc(COc3cc4n(c(=O)n3)C[C@H]3COCN43)cc2F)ccn1` [Example E161, (S)-6-((3,5-difluoro-4-((2-methylpyridin-4-yl)oxy)benzyl)oxy)-10,10a-dihydro-1H-oxazolo[3′,4′:3,4]imidazo[1,2-c]pyrimidin-8(3H)-one] was run?
**A.** The IC50 was at most 0.1 µM.

**Q.** What about the IC50 (Lp-PLA2 in human plasma) of the same compound?
**A.** The IC50 was at most 10 µM.

**Q.** `CN1CCN2c3cc(OCc4cc(F)c(Oc5ccnc(C(F)(F)F)c5)c(F)c4)nc(=O)n3CC2C1` (stereo not drawn) [Example E166, 7-((3,5-Difluoro-4-((2-(trifluoromethyl)pyridin-4-yl)oxy)benzyl)oxy)-2-methyl-3,4,11,11a-tetrahydro-1H-pyrazino[1′,2′:3,4]imidazo[1,2-c]pyrimidin-9(2H)-one] was tested. Which IC50 [2] did it give?
**A.** The IC50 was at most 0.001 µM.

**Q.** What about the IC50 (Lp-PLA2 in human plasma) of the same compound?
**A.** The IC50 was at most 0.1 µM.

**Q.** For `CN1CCN2c3cc(OCc4cc(F)c(Oc5cnn(C)c5)c(F)c4)nc(=O)n3CC2C1` (stereo not drawn) [Example E167, 7-((3,5-Difluoro-4-((1-methyl-1H-pyrazol-4-yl)oxy)benzyl)oxy)-2-methyl-3,4,11,11a-tetrahydro-1H-pyrazino[1,2′:3,4]imidazo[1,2-c]pyrimidin-9(2H)-one], which IC50 [2] is on record?
**A.** Its IC50 is at most 0.1 µM.

**Q.** And the IC50 (Lp-PLA2 in human plasma)?
**A.** Its IC50 is at most 10 µM.

**Q.** With `O=c1nc(OCc2cccc(F)c2F)cc2n1CC1CNCCN21` (stereo not drawn) [Example E268, 7-((2,3-Difluorobenzyl)oxy)-3,4,11,11a-tetrahydro-1H-pyrazino[1′,2′:3,4] imidazo [1,2-c]pyrimidin-9(2H)-one] as the compound, how does the IC50 [1] read?
**A.** Its IC50 is at most 10 µM.

**Q.** For `Cc1ccc(COc2cc3n(c(=O)n2)CC2CNCCN32)cc1C#N` (stereo not drawn) [Example E271, 2-Methyl-5-(((9-oxo-2,3,4,9,11,11a-hexahydro-1H-pyrazino[1′,2′:3,4]imidazo [1,2-c]pyrimidin-7-yl)oxy)methyl) benzonitrile], which IC50 [1] is on record?
**A.** Its IC50 is at most 10 µM.

**Q.** For `O=c1nc(OCc2ccc(Cl)c(Br)c2)cc2n1CC1CNCCN21` (stereo not drawn) [Example E275, 7-((3-Bromo-4-chlorobenzyl)oxy)-3,4,11,11a-tetrahydro-1H-pyrazino[1′,2′:3,4] imidazo [1,2-c]pyrimidin-9(2H)-one], which IC50 [1] is on record?
**A.** The IC50 was at most 10 µM.

**Q.** How did the IC50 [1] turn out when `O=c1nc(OCc2ccc(F)c(Br)c2)cc2n1CC1CNCCN21` (stereo not drawn) [Example E276, 7-((3-Bromo-4-fluorobenzyl)oxy)-3,4,11,11a-tetrahydro-1H-pyrazino[1′,2′:3,4] imidazo [1,2-c]pyrimidin-9(2H)-one] was run?
**A.** Its IC50 is at most 10 µM.

**Q.** With `O=c1nc(OCc2ccc(F)c(Cl)c2)cc2n1CC1CNCCN21` (stereo not drawn) [Example E277, 7-((3-Chloro-4-fluorobenzyl)oxy)-3,4,11,11a-tetrahydro-1H-pyrazino[1′,2′:3,4] imidazo [1,2-c]pyrimidin-9(2H)-one] as the compound, how does the IC50 [1] read?
**A.** The IC50 was at most 10 µM.

**Q.** Which IC50 [1] does the source give for `COc1ccc(COc2cc3n(c(=O)n2)CC2CNCCN32)cc1C#N` (stereo not drawn) [Example E278, 2-Methoxy-5-(((9-oxo-2,3,4,9,11,11a-hexahydro-1H-pyrazino[1′,2′:3,4]imidazo [1,2-c]pyrimidin-7-yl)oxy)methyl) benzonitrile] here?
**A.** Its IC50 is at most 10 µM.

**Q.** With `CS(=O)(=O)N1CCN2c3cc(NCc4ccc(F)c(F)c4)nc(=O)n3CC2C1` (stereo not drawn) [Example E309, 7-((3,4-Difluorobenzyl)amino)-2-(methylsulfonyl)-3,4,11,11a-tetrahydro-1H-pyrazino[1′,2′:3,4]imidazo[1,2-c]pyrimidin-9(2H)-one] as the compound, how does the IC50 [1] read?
**A.** The IC50 was at most 10 µM.

**Q.** How did the IC50 [1] turn out when `CS(=O)(=O)N1CCN2c3cc(NCc4cccc(F)c4F)nc(=O)n3CC2C1` (stereo not drawn) [Example E311, 7-((2,3-Difluorobenzyl)amino)-2-(methylsulfonyl)-3,4,11,11a-tetrahydro-1H-pyrazino[1′,2′:3,4]imidazo[1,2-c]pyrimidin-9(2H)-one] was run?
**A.** The IC50 was at most 10 µM.

**Q.** Which IC50 [1] does the source give for `CS(=O)(=O)N1CCN2c3cc(NCc4ccc(F)c(C#N)c4)nc(=O)n3CC2C1` (stereo not drawn) [Example E312, 2-Fluoro-5-(((2-(methylsulfonyl)-9-oxo-2,3,4,9,11,11a-hexahydro-1H-pyrazino[1′,2′:3,4]imidazo[1,2-c]pyrimidin-7-yl)amino)methyl)benzonitrile] here?
**A.** The IC50 was at most 10 µM.

**Q.** `CC(=O)N1CCN2c3cc(NCc4ccc(F)c(C#N)c4)nc(=O)n3CC2C1` (stereo not drawn) [Example E314, 5-(((2-Acetyl-9-oxo-2,3,4,9,11,11a-hexahydro-1H-pyrazino[1′,2′:3,4]imidazo[1,2-c]pyrimidin-7-yl)amino)methyl)-2-fluorobenzonitrile] was tested. Which IC50 [1] did it give?
**A.** Its IC50 is at most 10 µM.
